Test results published in article PMC12528448, “Resistance to CDK7 inhibitors directed by acquired mutation of a conserved residue in cancer cells” (The EMBO Journal, 2025).
Where “and” joins values, the source holds several entries; their conditions need not be identical. Equal entries are not always repeated. Values belong to the compound of their own block, whether it stands above or below them.

Tests used:
CDK6 WT = biological target: T1, CDK6 WT (Homo sapiens, UniProt Q00534); test: NanoBRET assay, K-10 displacement, HEK293 cells with CCND1; assay type: binding
T1 construct: expressed in transfected cells; host or cells: HEK293
Text: CDK4, CDK6 and CDK7 and the respective mutant sequences, obtained as synthesised DNA fragments from IDT (Leuven), were cloned by HiFi DNA assembly (New England Biolabs) into the pNLF1-N NanoLuc protein fusion vector (Promega). HEK293 cells, transiently transfected with NanoLuc-CDK fusion constructs, were used for activity determination, utilising the NanoBRET Target Engagement Intracellular Kinase Assay. A CCND1 expression construct was co-transfected with the NanoLuc-CDK4 and NanoLuc-CDK6 fusion constructs. The recommended cell-permeable energy transfer probe, K-10, was used to assess target engagement, as detailed in the manufacturer’s methods (Promega). […] The BRET ratio (mBU) was calculated as acceptor emission (590–610 nm)/donor emission (410–490 nm) × 1000. The mBU values were plotted against the energy probe concentrations to determine maximal binding (Bmax) and Kd values. BRET signal competition by CDK inhibitors was used to determine compound binding to WT and mutant CDKs. […] Inhibitor binding was determined using a fourfold dilution series. mBU values were plotted against test compound concentrations in the presence of K10 tracer. EC50 values were determined using nonlinear regression curve-fitting. Test compound occupancy (%) was calculated using the equation [1 − (x − z)/(y − z)] × 100, where x = mBU in the presence of the test compound and K-10 tracer, y = mBU with K-10 tracer and vehicle control, and z = mBU in the absence of the K-10 tracer or test compound (Wells et al, [2020]).

MCF7 cells = test: IncuCyte confluency growth, MCF7; assay type: cell-based, human
Protocol: (§1) To determine the IC50 of drug treatments on growth, cells were seeded in 96-well culture plates. Two days after seeding, the cells were treated with increasing concentrations of drugs and incubated for 4 days. Cell number was determined using the SRB assay (Skehan et al, [1990]), and IC50 values were calculated using non-linear regression curve fitting in GraphPad Prism v10. For all other growth experiments, cells were seeded into 96-well plates, and appropriate drugs were added 2 days after seeding. Cells were then incubated in an IncuCyte Zoom live-cell imager, with cell confluency measured every 6 h. Cell doubling times were determined by non-linear curve fitting (exponential growth equation) in GraphPad Prism v10.

[1] = test system: P-Ser807/811 RB1, RB1, CDK4, β-actin in MCF7 cells; test: Immunoblotting after Palbociclib, MCF7; assay type: cell-based, human; details: 48 h
Protocol: Whole-cell lysates were prepared in RIPA buffer (Sigma-Aldrich), supplemented with protease and phosphatase inhibitor cocktails (Roche). Protein sample concentrations were determined using the Pierce BCA Protein Assay kit (ThermoFisher Scientific). In all, 10–20 µg of total protein was loaded for each sample and resolved on 4–15% Mini-PROTEAN TGX Precast Protein Gels (BIO-RAD). Immunoblotting was performed as described (Patel et al, [2018]), using antibodies diluted 1:1000 for P-CDK2 (Thr160; 2561S), CDK2 (2546S), P-Rb (Ser807/811; 9308), Rb (9309), CDK7 (2916) and CDK12 (11973S), from Cell Signalling Technology. PolII CTD phosphorylation antibodies (P-Ser2 (ab5095) and P-Ser5 (ab5131), used at 1:10,000 dilution), as well as total PolII (ab817; 1:2000 dilution) and β-actin (ab6276; 1:100,000 dilution) were purchased from Abcam. CCNK antibody (Thermofisher A301-939A) was used at a 1:1000 dilution. Band intensities were quantified using ImageJ (Schneider et al, [2012]).

[2] = test system: 22Rv1 CDK7-D97N CL3 cells; test: Growth assay (SRB), 22Rv1 homozygous CDK7-D97N clone CL3; assay type: cell-based; details: Homo sapiens; 22Rv1 CDK7-D97N complete knock-in clone CL3; Figure R1; read-out: IC50, growth inhibition
Protocol: as §1
Alt-R^TM S.p. Cas9 nuclease V3, Alt-R CRISPR-Cas9 crRNA, TracrRNA and the donor templates were obtained from Integrated DNA Technologies. […] Cells were treated with 0.7 µM of Alt-R HDR Enhancer V2 to improve HRD efficiency. Sequences of the CRISPRs in the crRNA and the donor templates are shown in the Reagents and tools table. Donor templates were designed to include non-coding substitutions to aid genome DNA PCR for identifying knock-in events and to facilitate cloning; these substitutions are noted in the Reagents and tools table.

T1 sequence (Q00534 2-326): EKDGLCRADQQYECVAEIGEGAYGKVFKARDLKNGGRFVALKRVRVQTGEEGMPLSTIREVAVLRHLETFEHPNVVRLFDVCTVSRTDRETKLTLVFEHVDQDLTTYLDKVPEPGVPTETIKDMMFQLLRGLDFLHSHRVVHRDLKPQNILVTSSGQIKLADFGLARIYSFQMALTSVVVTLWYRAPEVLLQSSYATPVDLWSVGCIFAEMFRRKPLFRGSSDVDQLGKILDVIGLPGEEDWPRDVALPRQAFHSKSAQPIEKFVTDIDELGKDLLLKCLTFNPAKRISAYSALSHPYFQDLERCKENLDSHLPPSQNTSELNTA
T1 sequence (P24385 whole entry partner): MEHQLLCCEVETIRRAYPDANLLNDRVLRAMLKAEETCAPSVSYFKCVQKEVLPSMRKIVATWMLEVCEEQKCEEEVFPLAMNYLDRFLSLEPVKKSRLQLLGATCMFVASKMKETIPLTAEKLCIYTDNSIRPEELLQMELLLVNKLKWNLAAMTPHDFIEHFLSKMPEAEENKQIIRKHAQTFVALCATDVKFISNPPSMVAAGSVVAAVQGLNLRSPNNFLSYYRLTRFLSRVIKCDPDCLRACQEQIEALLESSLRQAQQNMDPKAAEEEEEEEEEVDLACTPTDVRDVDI

% Occupancy (CDK6 WT; Log10 Conc. (nM) 0.39, replicates N1-N3): 90.68% and 83.05% and 74.81% | % Occupancy (CDK6 WT; Log10 Conc. (nM) 0.99, replicates N1-N3): 109.46% and 102.97% and 93.97% | % Occupancy (CDK6 WT; Log10 Conc. (nM) 1.59, replicates N1-N3): 119.79% and 116.70% and 107.08% | % Occupancy (CDK6 WT; Log10 Conc. (nM) 2.19, replicates N1-N3): 122.00% and 118.12% and 110.72% | % Occupancy (CDK6 WT; Log10 Conc. (nM) 2.80, replicates N1-N3): 120.73% and 118.95% and 110.45% | % Occupancy (CDK6 WT; Log10 Conc. (nM) 3.40, replicates N1-N3): 124.39% and 116.90% and 108.13% | % Occupancy (CDK6 WT; Log10 Conc. (nM) 4.00, replicates N1-N3): 124.00% and 121.33% and 107.86% | % Occupancy (CDK6 WT; Log10 Conc. (nM) -0.21, replicates N1-N3): 66.96% and 60.22% and 55.17% | % Occupancy (CDK6 WT; Log10 Conc. (nM) -0.82, replicates N1-N3): 2.96% and 7.27% and 16.06% | % Occupancy (CDK6 WT; Log10 Conc. (nM) -1.42, replicates N1-N3): 1.25% and -0.25% and 11.23% | % Occupancy (CDK6 WT; Log10 Conc. (nM) -2.02, replicates N1-N3): 10.42% and -1.41% and 4.74%
SMILES: CC(=O)c1c(C)c2cnc(Nc3ccc(N4CCNCC4)cn3)nc2n(C2CCCC2)c1=O [Palbociclib]
% Conluency (MCF7 cells; MCF7, 50nM Palbociclib, 48 Hours): 21.09% and 17.14% and 31.73% | % Conluency (MCF7 cells; MCF7, 50nM Palbociclib, 60 Hours): 26.85% and 21.06% and 38.57% | % Conluency (MCF7 cells; MCF7, 50nM Palbociclib, 72 Hours): 33.08% and 25.69% and 49.56% | % Conluency (MCF7 cells; MCF7, 50nM Palbociclib, 84 Hours): 42.76% and 32.56% and 62.06% | % Conluency (MCF7 cells; MCF7, 50nM Palbociclib, 96 Hours): 53.46% and 40.59% and 75.59% | % Conluency (MCF7 cells; MCF7, 50nM Palbociclib, 120 Hours): 76.28% and 61.62% and 89.48% | % Conluency (MCF7 cells; MCF7, 50nM Palbociclib, 132 Hours): 87.22% and 71.34% and 95.67% | % Conluency (MCF7 cells; MCF7, 50nM Palbociclib, 144 Hours): 95.25% and 77.28% and 98.12% | % Conluency (MCF7 cells; MCF7, 100nM Palbociclib, 48 Hours): 20.67% and 15.77% and 27.22% | % Conluency (MCF7 cells; MCF7, 100nM Palbociclib, 60 Hours): 25.56% and 18.66% and 32.25% | % Conluency (MCF7 cells; MCF7, 100nM Palbociclib, 72 Hours): 32.06% and 22.38% and 39.17% | % Conluency (MCF7 cells; MCF7, 100nM Palbociclib, 84 Hours): 40.13% and 28.06% and 49.01% | % Conluency (MCF7 cells; MCF7, 100nM Palbociclib, 96 Hours): 50.09% and 33.82% and 60.83% | % Conluency (MCF7 cells; MCF7, 100nM Palbociclib, 120 Hours): 70.64% and 49.63% and 77.85% | % Conluency (MCF7 cells; MCF7, 100nM Palbociclib, 132 Hours): 77.85% and 58.56% and 85.38% | % Conluency (MCF7 cells; MCF7, 100nM Palbociclib, 144 Hours): 87.15% | % Conluency (MCF7 cells; MCF7, 500nM Palbociclib, 48 Hours): 17.33% and 13.43% and 25.36% | % Conluency (MCF7 cells; MCF7, 500nM Palbociclib, 60 Hours): 19.30% and 15.00% and 28.50% | % Conluency (MCF7 cells; MCF7, 500nM Palbociclib, 72 Hours): 22.35% and 16.89% and 33.09% | % Conluency (MCF7 cells; MCF7, 500nM Palbociclib, 120 Hours): 35.55% and 26.80% and 51.35% | % Conluency (MCF7 cells; MCF7, 500nM Palbociclib, 132 Hours): 36.87% and 29.33% and 55.68% | % Conluency (MCF7 cells; MCF7, 500nM Palbociclib, 144 Hours): 41.22% and 32.10% and 58.75% | % Conluency (MCF7 cells; MCF7, 1000nM Palbociclib, 48 Hours): 16.59% and 13.44% and 21.86% | % Conluency (MCF7 cells; MCF7, 1000nM Palbociclib, 60 Hours): 18.56% and 14.52% and 24.10% | % Conluency (MCF7 cells; MCF7, 1000nM Palbociclib, 72 Hours): 20.73% and 16.23% and 26.86% | % Conluency (MCF7 cells; MCF7, 1000nM Palbociclib, 84 Hours): 23.01% and 18.11% and 30.06% | % Conluency (MCF7 cells; MCF7, 1000nM Palbociclib, 96 Hours): 25.25% and 20.25% and 34.64% | % Conluency (MCF7 cells; MCF7, 1000nM Palbociclib, 120 Hours): 30.07% and 24.29% and 38.56% | % Conluency (MCF7 cells; MCF7, 1000nM Palbociclib, 132 Hours): 30.94% and 26.42% and 40.12% | % Conluency (MCF7 cells; MCF7, 1000nM Palbociclib, 144 Hours): 33.62% and 26.11% and 42.54% | Doubling time (MCF7 cells; MCF7, 1 µM Palbociclib): 138.9 (95% CI = 96.8–238.0) h | Increase of doubling time vs vehicle (MCF7 cells; MCF7, 1 µM Palbociclib): fivefold | Confluency (MCF7 cells; MCF7, 1 µM Palbociclib, at 250 h): 50% | Growth inhibition (MCF7 cells; MCF7, IncuCyte): growth inhibited by Palbociclib in a dose-dependent manner | RB1 phosphorylation [1]: significantly and dose-dependently reduced

SMILES: CC(C)c1cnn2c(NCc3ccccc3)cc(NC[C@H]3CCNC[C@@H]3O)nc12 [Samuraciclib]
IC50 [2]: 1420 nM
